According to patent publication US20260176320A1, “MODULATORS OF G-PROTEIN COUPLED RECEPTORS” (priority 2018, published 2026):
Read-outs that look alike come from different tables or passages of the source.

Tests used:
Type in all cases: cell-based
GLP-1R [1] = molecular target: T1, GLP-1R (Homo sapiens, UniProt P43220); experiment: PathHunter β-arrestin assay
How it was run: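 β-Arrestin recruitment measured by PathHunter enzyme-fragment luminescence, read after 3 h dark incubation at room temperature with detection solution. Beforehand, agonist in a 22-point 2-fold series was applied in duplicate for 90 min at 37 °C to 5,000 cells/well in BSA-containing (0.2%) medium.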

GLP-1R [2] = molecular target: T1, GLP-1R; experiment: HitHunter cAMP assay (GLP-1R); conditions: cAMP; for Emax: read-out: (Emax) GLP-1R
How it was run: (§1)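 cAMP accumulation read by luminescent HitHunter immunocompetition after 30 min room-temperature agonist stimulation. Agonists tested as 22-point twofold dilutions, in duplicate, on 10,000 cells/well in HBSS containing 625 μM IBMX, 10 mM HEPES and 0.2% BSA.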

GIP-R = molecular target: T2, GIP-R (Homo sapiens, UniProt P48546); experiment: HitHunter cAMP assay (GIP-R); conditions: cAMP; for Emax: read-out: (Emax) GIP-R
T2 sequence (P48546 22-466): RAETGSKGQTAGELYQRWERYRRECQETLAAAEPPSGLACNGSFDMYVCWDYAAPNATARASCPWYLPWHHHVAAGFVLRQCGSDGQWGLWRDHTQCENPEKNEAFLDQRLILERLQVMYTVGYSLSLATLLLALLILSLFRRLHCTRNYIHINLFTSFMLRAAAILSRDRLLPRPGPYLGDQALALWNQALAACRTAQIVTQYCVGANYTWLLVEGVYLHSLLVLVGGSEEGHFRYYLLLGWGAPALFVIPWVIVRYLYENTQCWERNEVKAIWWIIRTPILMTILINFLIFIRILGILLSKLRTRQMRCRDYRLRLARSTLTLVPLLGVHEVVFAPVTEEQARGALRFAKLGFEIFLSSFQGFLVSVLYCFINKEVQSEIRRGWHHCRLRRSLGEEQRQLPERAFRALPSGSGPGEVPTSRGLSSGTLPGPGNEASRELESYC
How it was run: as §1

[3] = read-out: EC50 GIP-R/nM, Table 3A
[4] = PathHunter β-arrestin assay, read-out: β-arrestin activity EC50
[5] = Table 3, read-out: EC50 GLP-1R/nM
[6] = Table 3A, read-out: EC50 GLP-1R/nM
[7] = Table 3, read-out: EC50 GIP-R/nM
[8] = Table 3A, read-out: EC50 GIP-R/nM

T1 sequence (P43220 24-463): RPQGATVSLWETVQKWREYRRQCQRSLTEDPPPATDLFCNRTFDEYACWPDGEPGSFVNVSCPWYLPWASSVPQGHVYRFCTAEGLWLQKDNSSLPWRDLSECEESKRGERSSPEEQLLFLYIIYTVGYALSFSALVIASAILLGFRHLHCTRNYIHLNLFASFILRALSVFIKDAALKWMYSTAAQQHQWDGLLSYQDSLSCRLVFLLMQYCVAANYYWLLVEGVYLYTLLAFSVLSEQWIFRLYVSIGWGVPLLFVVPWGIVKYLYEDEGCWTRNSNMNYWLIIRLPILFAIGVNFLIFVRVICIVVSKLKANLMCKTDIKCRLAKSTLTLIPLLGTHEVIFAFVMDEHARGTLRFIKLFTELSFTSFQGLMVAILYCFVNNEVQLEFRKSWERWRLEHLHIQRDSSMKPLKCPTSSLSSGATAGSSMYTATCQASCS

SMILES	EC50 (GLP-1R [1])	EC50 (GLP-1R [2]; EC50 GLP-1R/nM, Table 3)	EC50 (GLP-1R [2]; EC50 GLP-1R/nM, Table 3A)	Emax (GLP-1R [2]; Table 3)	Emax (GLP-1R [2]; Table 3A)	EC50 (GIP-R; EC50 GIP-R/nM, Table 3)	EC50 (GIP-R; EC50 GIP-R/nM, Table 3A)	Emax (GIP-R; Table 3)	Emax (GIP-R; Table 3A)	EC50 (GLP-1R [2]; read-out: EC50 GLP-1R/nM, Table 3)	EC50 (GLP-1R [2]; read-out: EC50 GLP-1R/nM, Table 3A)	EC50 (GIP-R; read-out: EC50 GIP-R/nM, Table 3)	EC50 (GIP-R; [3])	EC50 (GLP-1R [1]; [4])	EC50 (GLP-1R [2]; [5])	EC50 (GLP-1R [2]; [6])	EC50 (GIP-R; [7])	EC50 (GIP-R; [8])	Emax at 1 µM (GIP-R; read-out: (Emax) GIP-R at 1 μM, Table 3, at 1 μM)
CCCCCCCCCCCCCCCC(=O)N[C@@H](CCC(=O)NCCCC[C@H](NC(=O)[C@H](CO)NC(=O)[C@@H]1CCCN1C(=O)[C@@H]1CCCN1C(=O)[C@@H]1CCCN1C(=O)[C@H](C)NC(=O)CNC(=O)[C@H](CO)NC(=O)[C@H](CO)NC(=O)[C@@H]1CCCN1C(=O)CNC(=O)CNC(=O)[C@H](C)NC(=O)[C@H](CC(C)C)NC(=O)[C@H](CC(C)C)NC(=O)[C@H](Cc1c[nH]c2ccccc12)NC(=O)[C@H](CC(N)=O)NC(=O)[C@@H](NC(=O)[C@H](Cc1ccccc1)NC(=O)[C@H](CCC(=O)O)NC(=O)C(C)(C)NC(=O)[C@H](C)NC(=O)[C@H](C)NC(=O)[C@H](CCC(N)=O)NC(=O)[C@H](CCCCN)NC(=O)[C@H](CC(=O)O)NC(=O)[C@H](CC(C)C)NC(=O)[C@H](Cc1ccc(O)cc1)NC(=O)[C@@H](NC(=O)[C@H](CO)NC(=O)[C@H](Cc1ccc(O)cc1)NC(=O)[C@H](CC(=O)O)NC(=O)[C@H](CO)NC(=O)[C@@H](NC(=O)[C@H](Cc1ccccc1)NC(=O)[C@@H](NC(=O)CNC(=O)[C@H](CCC(=O)O)NC(=O)CSCC(=O)NCCN1C(=O)[C@H]2CC[C@H]2C1=O)[C@@H](C)O)[C@@H](C)O)[C@@H](C)CC)C(C)C)C(N)=O)C(=O)O [Compound 97]	> 1000 nM	1 to 10 nM	1 to 10 nM	99%	99%	0.1 to 1 nM	0.1 to 1 nM	93%	93%										
CC[C@H](C)[C@H](NC(=O)[C@H](CO)NC(=O)[C@H](Cc1ccc(O)cc1)NC(=O)[C@H](CC(=O)O)NC(=O)[C@H](CO)NC(=O)[C@@H](NC(=O)[C@H](Cc1ccccc1)NC(=O)[C@@H](NC(=O)CNC(=O)[C@H](CCC(=O)O)NC(=O)CSCC(=O)NCCN1C(=O)c2ccncc2C1=O)[C@@H](C)O)[C@@H](C)O)C(=O)N[C@@H](Cc1ccc(O)cc1)C(=O)N[C@@H](CC(C)C)C(=O)N[C@@H](CC(=O)O)C(=O)N[C@@H](CCCCN)C(=O)N[C@@H](CCC(N)=O)C(=O)N[C@@H](C)C(=O)N[C@@H](C)C(=O)NC(C)(C)C(=O)N[C@@H](CCC(=O)O)C(=O)N[C@@H](Cc1ccccc1)C(=O)N[C@H](C(=O)N[C@@H](CC(N)=O)C(=O)N[C@@H](Cc1c[nH]c2ccccc12)C(=O)N[C@@H](CC(C)C)C(=O)N[C@@H](CC(C)C)C(=O)N[C@@H](C)C(=O)NCC(=O)NCC(=O)N1CCC[C@H]1C(=O)N[C@@H](CO)C(=O)N[C@@H](CO)C(=O)NCC(=O)N[C@@H](C)C(=O)N1CCC[C@H]1C(=O)N1CCC[C@H]1C(=O)N1CCC[C@H]1C(=O)N[C@@H](CO)C(=O)N[C@@H](CCCCN)C(N)=O)C(C)C [Compound 157]	> 1000 nM			93 to 95%	93 to 95%			103 to 105%	103 to 105%	1 to 100 nM	1 to 100 nM	0.1 to 10 nM	0.1 to 10 nM						
CC[C@H](C)[C@H](NC(=O)[C@H](CO)NC(=O)[C@H](Cc1ccc(O)cc1)NC(=O)[C@H](CC(=O)O)NC(=O)[C@H](CO)NC(=O)[C@@H](NC(=O)[C@H](Cc1ccccc1)NC(=O)[C@@H](NC(=O)CNC(=O)[C@H](CCC(=O)O)NC(=O)CCCCNC(=O)CN1C(=O)CSC1=O)[C@@H](C)O)[C@@H](C)O)C(=O)N[C@@H](Cc1ccc(O)cc1)C(=O)N[C@@H](CC(C)C)C(=O)N[C@@H](CC(=O)O)C(=O)N[C@@H](CCCCN)C(=O)N[C@@H](CCC(N)=O)C(=O)N[C@@H](C)C(=O)N[C@@H](C)C(=O)NC(C)(C)C(=O)N[C@@H](CCC(=O)O)C(=O)N[C@@H](Cc1ccccc1)C(=O)N[C@H](C(=O)N[C@@H](CC(N)=O)C(=O)N[C@@H](Cc1c[nH]c2ccccc12)C(=O)N[C@@H](CC(C)C)C(=O)N[C@@H](CC(C)C)C(=O)N[C@@H](C)C(=O)NCC(=O)NCC(=O)N1CCC[C@H]1C(=O)N[C@@H](CO)C(=O)N[C@@H](CO)C(=O)NCC(=O)N[C@@H](C)C(=O)N1CCC[C@H]1C(=O)N1CCC[C@H]1C(=O)N1CCC[C@H]1C(=O)N[C@@H](CO)C(=O)N[C@@H](CCCCN)C(N)=O)C(C)C [Compound 177]				96%	96%									> 1000 nM	1 to 10 nM	1 to 10 nM	> 1000 nM	> 1000 nM	9%
CCCCCCCCCCCCCCCC(=O)N[C@@H](CCC(=O)NCCCC[C@H](NC(=O)[C@H](CO)NC(=O)[C@@H]1CCCN1C(=O)[C@@H]1CCCN1C(=O)[C@@H]1CCCN1C(=O)[C@H](C)NC(=O)CNC(=O)[C@H](CO)NC(=O)[C@H](CO)NC(=O)[C@@H]1CCCN1C(=O)CNC(=O)CNC(=O)[C@H](C)NC(=O)[C@H](CC(C)C)NC(=O)[C@H](CC(C)C)NC(=O)[C@H](Cc1c[nH]c2ccccc12)NC(=O)[C@H](CC(N)=O)NC(=O)[C@@H](NC(=O)[C@H](Cc1ccccc1)NC(=O)[C@H](CCC(=O)O)NC(=O)C(C)(C)NC(=O)[C@H](C)NC(=O)[C@H](C)NC(=O)[C@H](CCC(N)=O)NC(=O)[C@H](CCCCN)NC(=O)[C@H](CC(=O)O)NC(=O)[C@H](CC(C)C)NC(=O)[C@H](Cc1ccc(O)cc1)NC(=O)[C@@H](NC(=O)[C@H](CO)NC(=O)[C@H](Cc1ccc(O)cc1)NC(=O)[C@H](CC(=O)O)NC(=O)[C@H](CO)NC(=O)[C@@H](NC(=O)[C@H](Cc1ccccc1)NC(=O)[C@@H](NC(=O)CNC(=O)[C@H](CCC(=O)O)NC(=O)CSCC(=O)NCCn1cccc(C)c1=O)[C@@H](C)O)[C@@H](C)O)[C@@H](C)CC)C(C)C)C(N)=O)C(=O)O [Compound 232]	> 1000 nM		0.1 to 1 nM		95%		1 to 10 nM		78%										
CCCCCCCCCCCCCCCC(=O)N[C@@H](CCC(=O)NCCCC[C@H](NC(=O)[C@H](CO)NC(=O)[C@@H]1CCCN1C(=O)[C@@H]1CCCN1C(=O)[C@@H]1CCCN1C(=O)[C@H](C)NC(=O)CNC(=O)[C@H](CO)NC(=O)[C@H](CO)NC(=O)[C@@H]1CCCN1C(=O)CNC(=O)CNC(=O)[C@H](C)NC(=O)[C@H](CC(C)C)NC(=O)[C@H](CC(C)C)NC(=O)[C@H](Cc1c[nH]c2ccccc12)NC(=O)[C@H](CC(N)=O)NC(=O)[C@@H](NC(=O)[C@H](Cc1ccccc1)NC(=O)[C@H](CCC(=O)O)NC(=O)C(C)(C)NC(=O)[C@H](C)NC(=O)[C@H](C)NC(=O)[C@H](CCC(N)=O)NC(=O)[C@H](CCCCN)NC(=O)[C@H](CC(=O)O)NC(=O)[C@H](CC(C)C)NC(=O)[C@H](Cc1ccc(O)cc1)NC(=O)[C@@H](NC(=O)[C@H](CO)NC(=O)[C@H](Cc1ccc(O)cc1)NC(=O)[C@H](CC(=O)O)NC(=O)[C@H](CO)NC(=O)[C@@H](NC(=O)[C@H](Cc1ccccc1)NC(=O)[C@@H](NC(=O)CNC(=O)[C@H](CCC(=O)O)NC(=O)CCCNC(=O)CCN1CCCCC1=O)[C@@H](C)O)[C@@H](C)O)[C@@H](C)CC)C(C)C)C(N)=O)C(=O)O [Compound 15]				93%	93%			20%	20%					> 1000 nM	0.1 to 1 nM	0.1 to 1 nM	1 to 10 nM	10 to 100 nM	
CCCCCCCCCCCCCCCC(=O)N[C@@H](CCC(=O)NCCCC[C@H](NC(=O)[C@H](CO)NC(=O)[C@@H]1CCCN1C(=O)[C@@H]1CCCN1C(=O)[C@@H]1CCCN1C(=O)[C@H](C)NC(=O)CNC(=O)[C@H](CO)NC(=O)[C@H](CO)NC(=O)[C@@H]1CCCN1C(=O)CNC(=O)CNC(=O)[C@H](C)NC(=O)[C@H](CC(C)C)NC(=O)[C@H](CC(C)C)NC(=O)[C@H](Cc1c[nH]c2ccccc12)NC(=O)[C@H](CC(N)=O)NC(=O)[C@@H](NC(=O)[C@H](Cc1ccccc1)NC(=O)[C@H](CCC(=O)O)NC(=O)C(C)(C)NC(=O)[C@H](C)NC(=O)[C@H](C)NC(=O)[C@H](CCC(N)=O)NC(=O)[C@H](CCCCN)NC(=O)[C@H](CC(=O)O)NC(=O)[C@H](CC(C)C)NC(=O)[C@H](Cc1ccc(O)cc1)NC(=O)[C@@H](NC(=O)[C@H](CO)NC(=O)[C@H](Cc1ccc(O)cc1)NC(=O)[C@H](CC(=O)O)NC(=O)[C@H](CO)NC(=O)[C@@H](NC(=O)[C@H](Cc1ccccc1)NC(=O)[C@@H](NC(=O)CNC(=O)[C@H](CCC(=O)O)NC(=O)CSCC(=O)NCCN1CCC(C)(C)C1=O)[C@@H](C)O)[C@@H](C)O)[C@@H](C)CC)C(C)C)C(N)=O)C(=O)O [Compound 35]	> 1000 nM	0.1 to 1 nM	0.1 to 1 nM	110%	110%	1 to 10 nM		20 to 37%	20 to 37%				1 to 100 nM						
